Data on 24 compounds can be found in patent US11591341B2 (ALIGOS THERAPEUTICS, INC., priority 2019, dated 2023).

Bounds are passed on as bounds.

The subject of the assay is HBV. The assay can be described thus: HBV-DNA Antiviral Assay Using HepG2.117 Cells (intracellular HBV DNA by qPCR). It is filed as cell-based, hepatitis B virus (genotype D). To be noted: Hepatitis B virus, HepG2.117. The essentials: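 HepG2.117 cells (genotype D HBV, Tet-off) were induced by doxycycline withdrawal and treated for 3 days with 9 concentrations in 4-fold dilution, 2% DMSO final. Intracellular HBV DNA was measured by qPCR against a standard curve, with ATPlite viability read in parallel. EC50, EC90 and CC50 came from fits against the DMSO control.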

Compound `C[C@@H]1Cn2c(c3n(c2=O)C[C@@H](F)CN(Cc2ccccc2)C3=O)CN1C(=O)c1ccc(Br)c(Cl)c1` (stereo in doubt) [Example 373, rac-(5R,11S)-13-benzyl-4-(4-bromo-3-chloro-benzoyl)-11-fluoro-5-methyl-4,7,9,13-tetrazatricyclo[7.5.0.0^2,7]tetradec-1-ene-8,14-dione] returned an EC50 of 100 to 500 nM.

For `COc1ccc(C(C)NC(=O)c2c3n(c(=O)n2-c2ccc(OC4CC4)cc2)CCN(C(=O)c2ccc(Br)c(Cl)c2)C3)c(F)c1` (racemic) [Example 420, 7-(4-bromo-3-chloro-benzoyl)-2-[4-(cyclopropoxy)phenyl]-3-oxo-N-[rac-(1R)-1-(2-fluoro-4-methoxy-phenyl)ethyl]-6,8-dihydro-5H-imidazo[1,5-a]pyrazine-1-carboxamide], the EC50 was less than 100 nM.

`COc1cc(C#N)ccc1CNC(=O)c1c2n(c(=O)n1-c1ccc(OC(C)C)cc1)CCN(C(=O)c1ccc(Br)c(Cl)c1)C2` [Example 236, 7-(4-bromo-3-chloro-benzoyl)-N-[(4-cyano-2-methoxy-phenyl)methyl]-2-(4-isopropoxyphenyl)-3-oxo-6,8-dihydro-5H-imidazo[1,5-a]pyrazine-1-carboxamide] returned an EC50 of 100 to 500 nM.

`COc1ccc(-n2c(C(=O)NCc3ccc(OC)cc3Cl)c3n(c2=O)CCN(C(=O)c2ccc(Cl)c(Cl)c2)C3)cc1` [Example 85, N-[(2-chloro-4-methoxy-phenyl)methyl]-7-(3,4-dichlorobenzoyl)-2-(4-methoxyphenyl)-3-oxo-6,8-dihydro-5H-imidazo[1,5-a]pyrazine-1-carboxamide]: the EC50 fell in the range of 500 to 5000 nM.

`COc1ccc(CN2C[C@@H](O)Cn3c(c4n(c3=O)CCN(C(=O)c3ccc(Br)c(Cl)c3)C4)C2=O)cc1` (stereo in doubt) [Example 193, rac-(11R)-4-(4-bromo-3-chloro-benzoyl)-11-hydroxy-13-[(4-methoxyphenyl)methyl]-4,7,9,13-tetrazatricyclo[7.5.0.0^2,7]tetradec-1-ene-8,14-dione]: the EC50 was in the range of 100 to 500 nM.

With `O=C(NCc1cccc2cccnc12)c1c2n(c(=O)n1-c1ccc(OCC(F)(F)F)cc1)CCN(C(=O)c1ccc(Br)c(Cl)c1)C2` [Example 230, 7-(4-bromo-3-chloro-benzoyl)-3-oxo-N-(8-quinolylmethyl)-2-[4-(2,2,2-triflurooethoxy)phenyl]-6,8-dihydro-5H-imidazo[1,5-a]pyrazine-1-carboxamide], the EC50 lay within 100 to 500 nM.

As for `O=C(NCc1ccccc1)c1c2n(c(=O)n1-c1ccc(N3CCC3=O)cc1)CCN(C(=O)c1ccc(Br)c(Cl)c1)C2` [Example 419, N-benzyl-7-(4-bromo-3-chloro-benzoyl)-3-oxo-2-[4-(2-oxoazetidin-1-yl)phenyl]-6,8-dihydro-5H-imidazo[1,5-a]pyrazine-1-carboxamide], the EC50 lay within 500 to 5000 nM.

`C[C@H](Oc1ccc([C@@H](C)NC(=O)c2c3n(c(=O)n2-c2ccc(OCC(F)(F)F)cc2)CCN(C(=O)c2ccc(Br)c(Cl)c2)C3)c(F)c1)C(N)=O` (stereo in doubt) [Example 360, 7-(4-bromo-3-chloro-benzoyl)-3-oxo-N-[rac-(1R)-1-[2-fluoro-4-[rac-(1S)-2-amino-1-methyl-2-oxo-ethoxy]phenyl]ethyl]-2-[4-(2,2,2-trifluoroethoxy)phenyl]-6,8-dihydro-5H-imidazo[1,5-a]pyrazine-1-carboxamide] yielded an EC50 of 500 to 5000 nM.

`O=C(NCc1ccccc1-c1cocn1)c1c2n(c(=O)n1-c1ccc(OC3CC3)cc1)CCN(C(=O)c1ccc(Br)c(Cl)c1)C2` [Example 398, 7-(4-bromo-3-chloro-benzoyl)-2-[4-(cyclopropxy)phenyl]-N-[(2-oxazol-4-ylphenyl)methyl]-3-oxo-6,8-dihydro-5H-imidazo[1,5-a]pyrazine-1-carboxamide] displayed an EC50 of less than 100 nM.

With `C[C@@H](Oc1ccc(CNC(=O)c2c3n(c(=O)n2-c2ccc(OC4CC4)cc2)CCN(C(=O)c2ccc(Br)c(Cl)c2)C3)c(F)c1)C(N)=O` (racemic) [Example 406, 7-(4-bromo-3-chloro-benzoyl)-2-[4-(cyclopropoxy)phenyl]-N-[[2-fluoro-4-[rac-(1R)-2-amino-1-methyl-2-oxo-ethoxy]phenyl]methyl]-3-oxo-6,8-dihydro-5H-imidazo[1,5-a]pyrazine-1-carboxamide], the EC50 lay within 100 to 500 nM.

For `C[C@H]1Cn2c(c3n(c2=O)C[C@H](F)CN(Cc2ccccc2)C3=O)CN1C(=O)c1ccc(Br)c(Cl)c1` (stereo in doubt) [Example 372, 13-benzyl-4-(4-bromo-3-chlorobenzoyl)-11-fluoro-4,7,9,13-tetraazatricyclo[7.5.0.0^[2,7]]tetradec-1-ene-8,14-dione], the EC50 fell in the range of 100 to 500 nM.

With `CC(NC(=O)c1c2n(c(=O)n1-c1ccc(OCC(F)(F)F)cc1)CCN(C(=O)c1ccc(Br)c(Cl)c1)C2)c1ccc(OC(F)(F)F)cc1F` (racemic) [Example 293, 7-(4-bromo-3-chloro-benzoyl)-3-oxo-N-[rac-(1S)-1-[2-fluoro-4-(trifluoromethoxy)phenyl]ethyl]-2-[4-(2,2,2-trifluoroethoxy)phenyl]-6,8-dihydro-5H-imidazo[1,5-a]pyrazine-1-carboxamide], the EC50 was in the range of 500 to 5000 nM.

Consider `O=C(NCCc1ccccc1)c1c2n(c(=O)n1-c1ccccc1)CCN(C(=O)c1ccc(Br)c(Cl)c1)C2` [Example 28, 7-(4-bromo-3-chloro-benzoyl)-3-oxo-2-phenyl-N-(2-phenylethyl)-6,8-dihydro-5H-imidazo[1,5-a]pyrazine-1-carboxamide], for which the EC50 was in the range of 500 to 5000 nM.

`O=C(NCc1ccccc1-n1ccnc1)c1c2n(c(=O)n1-c1ccc(OCC(F)(F)F)cc1)CCN(C(=O)c1ccc(Br)c(Cl)c1)C2` [Example 263, 7-(4-bromo-3-chloro-benzoyl)-N-[(2-imidazol-1-ylphenyl)methyl]-3-oxo-2-[4-(2,2,2-trifluoroethoxy)phenyl]-6,8-dihydro-5H-imidazo[1,5-a]pyrazine-1-carboxamide] came in with an EC50 of 500 to 5000 nM.

`CO[C@H]1CN(Cc2ccccc2)Cc2c3n(c(=O)n2C1)CCN(C(=O)c1ccc(Br)c(Cl)c1)C3` (stereo in doubt) [Example 310, rac-(11S)-13-benzyl-4-(4-bromo-3-chloro-benzoyl)-11-methoxy-4,7,9,13-tetrazatricyclo[7.5.0.0^2,7]tetradec-1-ene-8,14-dione]: the EC50 was in the range of 100 to 500 nM.

Turning to `COc1ccc(-n2c(C(=O)NCc3ccc(C)c(OC)c3)c3n(c2=O)CCN(C(=O)c2ccc(Cl)c(Cl)c2)C3)cc1` [Example 90, 7-(3,4-dichlorobenzoyl)-N-[(3-methoxy-4-methyl-phenyl)methyl]-2-(4-methoxyphenyl)-3-oxo-6,8-dihydro-5H-imidazo[1,5-a]pyrazine-1-carboxamide], the EC50 lay within 500 to 5000 nM.

The compound `CC(C)Oc1ccc(-n2c(C(=O)NCc3ccccc3)c3n(c2=O)CCN(C(=O)c2ccc(Cl)c(Cl)c2)C3)cc1` [Example 52] returned a half-maximal effective concentration (EC50) of 500 to 5000 nM.

As for `O=C1COc2ccc(CNC(=O)c3c4n(c(=O)n3-c3ccc(OC5CC5)cc3)CCN(C(=O)c3ccc(Br)c(Cl)c3)C4)cc2N1` [Example 431, 7-(4-bromo-3-chloro-benzoyl)-2-[4-(cyclopropoxy)phenyl]-3-oxo-N-[(3-oxo-4H-1,4-benzoxazin-6-yl)methyl]-6,8-dihydro-5H-imidazo[1,5-a]pyrazine-1-carboxamide], the EC50 was 500 to 5000 nM.

The compound `COc1ccc(-n2c(C(=O)NCc3ccccc3)c3n(c2=O)CC(C)N(C(=O)c2ccc(Br)c(Cl)c2)C3)cc1` (racemic) [Example 198, rac-(6R)-N-benzyl-7-(4-bromo-3-chloro-benzoyl)-2-(4-methoxyphenyl)-6-methyl-3-oxo-6,8-dihydro-5H-imidazo[1,5-a]pyrazine-1-carboxamide] had an EC50 of 500 to 5000 nM.

`N#Cc1cc(C(=O)N2CCn3c(c(C(=O)NCc4ccccc4-c4ncccn4)n(-c4ccc(OC5CC5)cc4)c3=O)C2)ccc1Br` [Example 432, 7-(4-bromo-3-cyano-benzoyl)-2-[4-(cyclopropoxy)phenyl]-3-oxo-N-[(2-pyrimidin-2-ylphenyl)methyl]-6,8-dihydro-5H-imidazo[1,5-a]pyrazine-1-carboxamide] gave an EC50 of 100 to 500 nM.

The compound `C[C@H](NC(=O)c1c2n(c(=O)n1-c1ccc(OC3CC3)cc1)CCN(C(=O)c1ccc(Br)c(Cl)c1)C2)c1ccc(OC(C)(C)C(N)=O)cc1F` (stereo in doubt) [Example 338, 7-(4-bromo-3-chloro-benzoyl)-2-[4-(cyclopropoxy)phenyl]-3-oxo-N-[rac-(1S)-1-[4-(2-amino-1,1-dimethyl-2-oxo-ethoxy)-2-fluoro-phenyl]ethyl]-6,8-dihydro-5H-imidazo[1,5-a]pyrazine-1-carboxamide] yielded an EC50 of 100 to 500 nM.

For the compound `COc1ccc(-n2c(C(=O)NCc3ccc(OC)c(C)c3)c3n(c2=O)CCN(C(=O)c2ccc(Cl)c(Cl)c2)C3)cc1` [Example 89, 7-(3,4-dichlorobenzoyl)-N-[(4-methoxy-3-methyl-phenyl)methyl]-2-(4-methoxyphenyl)-3-oxo-6,8-dihydro-5H-imidazo[1,5-a]pyrazine-1-carboxamide], the EC50 is 500 to 5000 nM.

On to `CC(C)Oc1ccc(-n2c(C(=O)NCc3ccc4occc4c3)c3n(c2=O)CCN(C(=O)c2ccc(Br)c(Cl)c2)C3)cc1` [Example 220, N-(benzofuran-5-ylmethyl)-7-(4-bromo-3-chloro-benzoyl)-2-(4-isopropoxyphenyl)-3-oxo-6,8-dihydro-5H-imidazo[1,5-a]pyrazine-1-carboxamide], for which the EC50 was greater than 5000 nM.

Turning to `COc1ccc(CNC(=O)c2c3n(c(=O)n2-c2ccc(OC(C)C)cc2)CCN(C(=O)c2ccc(Br)c(Cl)c2)C3)cc1` [Example 185, 7-(4-bromo-3-chloro-benzoyl)-2-(4-isopropoxyphenyl)-N-[(4-methoxyphenyl)methyl]-3-oxo-6,8-dihydro-5H-imidazo[1,5-a]pyrazine-1-carboxamide], the EC50 fell in the range of 100 to 500 nM.
